The values that follow come from patent publication US8835629B2, “Anti-cancer agents” (The Walter and Eliza Hall Institute of Medical Research, priority 2010, dated 2014).

Data set [1] concerns LIM 1215. Kind of data set: MTT cell proliferation assay, LIM 1215. The data set is classed as cell-based. The conditions noted are these: LIM1215, 72 h; LIM 1215 human colorectal carcinoma; MTT after 3 days of incubation; read-out: IC50, inhibition of proliferation. How it is done:
(§1) Compound 2 was tested on a series of cell lines to determine its activity and selectivity (Table 2). Cell proliferation was measured using the MTT assay (for protocol see Example 2.6) after 3 days of incubation with the inhibitor.
(§2) • Cells plated at […] in 100 μl medium+5% FCS (+Adds^1): • Cells incubated overnight: • Titrate inhibitors in a fresh plate in 150 μl medium • Transfer 100 μl titrated compounds to matching wells of the cell plate. • Incubate a further 4 days: • Add 10 μl MTS^2 or MTT^3 for 1.5 to 2 hours and read on Multiscanner (wavelengths 492/690) ^1 Additives for culture of LIM cell lines: 10 μM thioglycerol, 0.025 U/ml insulin, 1 μg/ml hydrocortisone. ^2 3-(4,5-dimethylthiazol-2-yl)-5-(3-carboxymethoxyphenyl)-2-(4-sulfophenyl)-2H-tetrazolium. ^3 3-(4,5-Dimethylthiazol-2-yl)-2,5-diphenyltetrazolium bromide
(§3) Cells are trypsinized and washed ×2 in medium+5% FCS and plate out at 10^4 cells per well in 100 μl.
(§4) Incubate plates o/n 37° C.+5%-10% CO2 incubator.
(§5) Inhibitors are dissolved in DMSO to make 10 mM stocks and titrated in a 96 well plate in duplicate to use as the stock for the test plate. […]
(§6) Read OD of plates on Thermo Multiskan Ex, at 560/690 nm.

The subject of data set [2] is LIM 2537. Kind of data set: MTT cell proliferation assay, LIM 2537. The conditions noted are these: 72 h; LIM 2537 human colorectal carcinoma; MTT after 3 days of incubation; read-out: IC50, inhibition of proliferation. The data set is classed as cell-based. On the procedure:
as §1, §2, §3, §4, §5, §6

In data set [3] the test system is MCF-7. Kind of data set: MTT cell proliferation assay, MCF-7. The data set is classed as cell-based. The conditions noted are these: MCF7, 72 h; MCF-7 human breast carcinoma; MTT after 3 days of incubation; read-out: IC50, inhibition of proliferation. On the procedure: as §1, §2, §3, §4, §5, §6
For data set [4], the system named is BaF/3 cells. Kind of data set: Anti-mitotic effects of metabolites recovered from mouse plasma (G2/M, FACS). The data set is classed as cell-based, murine. The conditions noted are these: BaF3, 24 hr, FACS with Propidium Iodide, concentration of recovered peaks difficult to quantify, read-out: IC50 (G2/M block) of peaks recovered from mouse plasma. On the procedure:
FIG. 5: Anti-mitotic effects of metabolites recovered from mouse plasma after compound 2 injection. BaF/3 cells were incubated for 24 hr with increasing amounts of each reconstituted peak. Cell cycle distribution was assessed by FACS analysis using Propidium Iodide. The percentage of cells in the G2/M phase of the cell cycle was determined using ModFi
The mouse plasma was fractionated on RP-HPLC and the peaks indicated above were collected. The pooled peak samples were concentrated by lyophilization. A portion of each peak sample was reconstituted in culture media for bioassay (FIG. 5). The remainder was analyzed by LC-MS to confirm the mass and identify the structures.

Data set [5] concerns LIM 2537 (colon carcinoma cell line) tumors. Kind of data set: Tumor xenograft study with LIM 2537 cells. The data set is classed as in vivo, BALB/c nude mice. The conditions noted are these: 15 mg/kg SC. How it is done: FIG. 7: LIM2537 tumor growth in nude mice. Tumor diameters were measured with external calipers every three days and tumor volume calculated with the formula: π/6×(L×W^2).
The mice were inoculated with 3×10^6 cells per tumor in 100 μl PBS, one tumor on each flank subcutaneously (SC). Treatments were started on the third day after inoculation with either vehicle control (VC) or 100 μl of drug at 3 mg/ml in aqueous solution giving a dose of 15 mg/kg. Mice were injected SC in the abdomen, three times per week for the duration of the experiment. The mice were monitored for body weight, tumor volume and appearance, and for any adverse reactions to the drug. The experiment was terminated after 33 days and the control group euthanized, as the tumor burden in that group had reached the maximum allowed. The remaining mice were then left without treatment for a further 9 days to monitor resumption of tumor growth.

Data set [6] has as its system U87MG(Δ2-7) (brain cancer cell line) tumours. Kind of data set: Tumor xenograft study with U87MG(Δ2-7). The data set is classed as in vivo, Balb/c nu/nu mice. On the procedure:
FIG. 8: U87MG(Δ2-7) tumor growth in nude mice. Tumor diameters were measured with external callipers every three days and tumor volume calculated with the formula: π/6×(L×W2).
Mice: Balb/c nu/nu male; 8 controls and 8 treated.
Cells inoculated: U87MG(Δ2-7) at 2.13×10^6 cells/tumour; two tumours per mouse.
(§7) Dose: Compound 2 at 20 mg/kg=100 μl of 4 mg/ml in water for injection per 20 g mouse. Control mice were injected with 100 μl water for injection.
Treatment and monitoring: Treatment commenced at Day 5 after inoculation. Mice were injected SC in abdomen three times per week (Mon, Wed, Fri), on alternating sides. Mice were weighed, tumour diameters measured in two dimensions and the health of the mice was monitored.
After mice were sacrificed: the tumours were dissected and weighed; spleens and livers were also weighed.

For data set [7], the system named is H1437 (non-small cell lung cancer cell line) tumours. Kind of data set: Tumor xenograft study with H1437. The data set is classed as in vivo, Balb/c nu/nu mice. How it is done:
FIG. 10: H1437 tumor growth in nude mice. Tumor diameters were measured with external callipers every three days and tumor volume calculated with the formula: π/6×(L×W2).
Mice: Balb/c nu/nu male; 8 controls and 8 treated; 5 weeks old.
Cells inoculated: H1437 (non-small cell lung cancer cell line) at 2×10^6 cells/tumour; two tumours per mouse.
as §7
Treatment and monitoring: Treatment commenced at Day 5 after inoculation. Mice were injected SC in abdomen three times per week, on alternating sides. Mice were weighed; tumour diameters measured in two dimensions and the health of the mice was monitored. Injections correspond to data points on the plots, with an additional treatment on Day 14 when no measurements were made.

Setting [8] is: 20 mg/kg SC three times per week, post mortem.

“Also recorded” adds a separate entry of the source.

Consider `COc1ccc(CNc2nc(NCc3ccc(CN)cc3)nc(NN3CC(=O)NC3=O)n2)cc1` (single isomer, unassigned) [Compound 2, 1-[4-(4-aminomethyl-benzylamino)-6-(4-methoxybenzylamino)-{1,3,5}-triazin-2-yl-amino]-imidazolidine-2,4-dione], for which the IC50 is 90 nM in data set [1], 70 nM in data set [2], 10 nM in data set [3] and 100 nM in data set [4]. In addition, the “Tumor growth (tumor volume)” value in data set [5] (3 injections per week from day 3, 33 days) was “significantly reduced the rate of growth of the tumors; also recorded: successful in slowing the growth of LIM 2537 cells”. Also, the Mouse body weights entry in data set [5] (three times per week) is “not affected”. Moreover, in data set [5] (three times per week, aqueous formulation), the “Adverse reaction to the drug” value is listed as “no long term adverse reaction”. Further, the “Tumour growth (tumour volume)” value in data set [6] (20 mg/kg SC three times per week from day 5, terminated at 14 days) was “significant difference in volume between control and treated tumours; also recorded: reduced the growth of the tumours”; in data set [7] (20 mg/kg SC three times per week from day 5, terminated at 26 days), “Clear difference; also recorded: significant difference in volume between control and treated tumours”. Besides, the “Liver or spleen weights vs vehicle control” value in data set [6] (setting [8]) is on record as “no significant difference”. The Tumor weight result in data set [6] (setting [8]) is reported as “greatly reduced”. Besides, the “Size of dissected tumours” value in data set [7] (20 mg/kg three times per week, after sacrifice) is given as “clear difference in size”.
